Where a SMILES comes first, the peptide text is derived from it. Where no end group is shown, it is not given here. The star is where a group is joined. Myristoyl = CCCCCCCCCCCCCC(=O)*

This note sets out measurements from patent US20230125482A1, “PROTEIN KINASE C MODULATORS” (Young Therapeutics, LLC, priority 2020, published 2023).

The nature of one data set: Solubility of peptide. Type of data set: physicochemical.
Another data set deals with isolated rat hearts. The data set can be described thus: Myocardial ischemia/reperfusion (I/R) injury in isolated rat hearts (Langendorff, ex vivo). As to conditions: for Final Coronary Flow / Final Heart Rate / Final LVDP / Final LVEDP / Final LVESP / Final dP/dtmax / Final dP/dtmin: 50 min post-reperfusion; for Initial Coronary Flow / Initial Heart Rate / Initial LVDP / Initial LVEDP / Initial LVESP / Initial dP/dtmax / Initial dP/dtmin: baseline before ischemia.

In data set [1] the test system is rat polymorphonuclear leukocytes (PMNs). Put plainly: PMA-stimulated superoxide release in rat polymorphonuclear leukocytes (ferricytochrome c reduction, 550 nm). Type of data set: cell-based. As to conditions: for reduction of PMA (100 nM) induced leukocyte superoxide release: vs untreated PMA controls. The method, then:
Change in absorbance at 550 nm via ferricytochrome c reduction by superoxide after stimulation with 100 nM phorbol 12-myristate 13-acetate (PMA) from time 0 to 390 sec was monitored in rat polymorphonuclear leukocytes (PMNs) (5×10^6) incubated for 15 min at 37° C. in the presence/absence of unconjugated PKCβII activator (PKCβII+) (SVEIWD (SEQ ID NO: 23)) or inhibitor (PKCβII−) (SLNPEWNET(SEQ ID NO: 5)), Myr−PKCβII+/−, Myr−PKCβII− scram (Myr-WNPESLNTE (Myristoylated SEQ ID NO: 17), Myr−TAT−PKC|II− (Myristoylated SEQ ID NO: 15) (all 20 μM) or superoxide dismutase (SOD; 10 μg/mL) (FIG. 7). Stock concentrations of compounds were dissolved in DMSO to yield a final concentration not greater that 0.2%. #: p<0.05 vs PMA, Native PKC βII+, Myr−PKC βII+ and Myr−TAT−PKC βII−; **: p<0.01 vs. all groups except Myr−TAT−PKC βII− or SOD; ++: p<0.01 vs. all groups. ANOVA post-hoc analysis was conducted using Bonferroni-Dunn.
The time course of changes in absorbance are summarized in FIGS. 8 (concentration response of Myr+TAT PKCβII−) and 9 (comparison of Myr+TAT+PKCβII− and Myr−PKCβII−, Myr−PKCβII− scrambled, and PKCβII− analogues and PMA controls). The peak response was reached by 300 seconds and maintained a plateau to 390 seconds, Myr+TAT+PKCβII− (20 μM; n=5) reduced phorbol 12-myristate 13-acetate (PMA, 100 nM) induced leukocyte superoxide release by 80%—a degree that was greater than all other study groups (p<0.01). In contrast, the Myr+PKCβII− (20 μM; n=27) reduced leukocyte superoxide release by only 30% (20 μM; n=27), again supporting the concept that the dual Myr−TAT conjugation produced greater results and reduced leukocyte superoxide release by ˜80% and ˜65% as compared to untreated PMA controls (n=74) and Myr+PKCβII− (20 μM; n=27), respectively.

Where [2] appears, read: 10 μM, I(30 min)/R(50 min), infarct tissue weight/total tissue weight.
Setting [3] is: ex vivo rat I/R hearts, FIG. 4, concentration not given.

Description for isolated rat hearts: Rat hearts were isolated from anesthetized male Sprague Dawley rats (275-325 g), placed in ice-cold Krebs' buffer, and placed onto a Langendorff heart apparatus and retro perfused with Krebs' buffer at a constant pressure of 80 mmHg (FIG. 1). A pressure transducer measures heart rate, left ventricular end-systolic pressure, end-diastolic pressure, dP/dt max, and dP/dt min. Coronary flow is measured via a flow probe connected to the perfusion tubing. Cardiac function was recorded throughout the experimental protocol using a pressure transducer inserted into the left ventricle (15 min baseline; global I(30 min)/R(50 min)). Selected peptides of TABLE 1 or vehicle (control [0.05 to 0.2% Dimethylsulfoxide) were given during the first 5 min of reperfusion. All peptide inhibitors or activators were dissolved in 28% DMSO and the final concentration of DMSO with peptides or without peptides (control I/R hearts) delivered to all hearts was 0.06%. Statistical analysis was performed using ANOVA and Bonferroni-Dunn post-hoc test.
At the end of the experimental protocol, hearts were removed from the Langendorff apparatus, and frozen for 30 min at −20° C. Hearts were sectioned (2 mm) from base to apex and placed in 1% TTC for ˜10 min at 37° C. Viable tissue stained red and infarcted tissue was unstained (pale). Total tissue sections were weighed and infarcted tissue was separated from viable tissue and weighed to determine infarct size (i.e. infarct tissue weight/total tissue weight).

One may read the solubility as how much of the substance goes into solution per volume. The low end stands for little dissolved substance, the high end for much dissolved substance. Compound `CCCCCCCCCCCCCC(=O)N[C@@H](CCC(=O)O)C(=O)N[C@@H](C)C(=O)N[C@H](C(=O)N[C@@H](CO)C(=O)N[C@@H](CC(C)C)C(=O)N[C@@H](CCCCN)C(=O)N1CCC[C@H]1C(=O)N[C@H](C(=O)O)[C@@H](C)O)C(C)C` [Myr + PKCε-, Myr-EAVSLKPT] (Myristoyl-EAVSLKPT-OH; C-terminus assumed) gave a solubility in “Solubility of peptide” not above 10 mM. Moreover, the “concentration for similar restoration of post-reperfused cardiac function relative to Myr+TAT+PKCε−” value with isolated rat hearts was 100 ×. For the same compound, in the data set with isolated rat hearts (10 μM), the “reduction of infarct size compared to control I/R hearts” value was “did not reduce infarct size”, the “restoration of post-reperfused cardiac function” value is listed as “ineffective”, the “Final Coronary Flow” value is on record as 10 ± 1 mL/min and the “Final Heart Rate” value came out at 233 ± 10 BPM. In the data set with isolated rat hearts (10 μM), the “Final LVDP” value was 46 ± 8 mmHg, the “Final LVEDP” value is recorded as 58 ± 3 mmHg, the “Final LVESP” value was 104 ± 6 mmHg and the “Final dP/dtmax” value is 723 ± 84 mmHg/s. In the data set on isolated rat hearts (10 μM), the “Final dP/dtmin” value is recorded as −694 ± 167 mmHg/s, the “Initial Coronary Flow” value came out at 17 ± 2 mL/min, the “Initial Heart Rate” value was determined as 258 ± 8 BPM and the “Initial LVDP” value is 90 ± 5 mmHg. In addition, in the data set on isolated rat hearts (10 μM), the “Initial LVEDP” value is listed as 6 ± 1 mmHg, the “Initial LVESP” value amounted to 95 ± 5 mmHg, the “Initial dP/dtmax” value was 2294 ± 108 mmHg/s and the “Initial dP/dtmin” value is on record as −1548 ± 92 mmHg/s. Also, the “Infarct Size” value in the data set on isolated rat hearts (setting [2]) is listed as 15 ± 4%.

As to “YGRKKRRQRRRCCEAVSLKPT (not fully specified; cysteine pairing not given here) [TAT + PKCε-]”, in the data set with isolated rat hearts (10 μM), the “reduction of infarct size compared to control I/R hearts” value was “did not reduce infarct size”, the “Final Coronary Flow” value is listed as 12 ± 4 mL/min, the “Final Heart Rate” value amounted to 242 ± 18 BPM and the “Final LVDP” value worked out at 37 ± 12 mmHg. Besides, in the data set on isolated rat hearts (10 μM), the “Final LVEDP” value was determined as 63 ± 2 mmHg, the “Final LVESP” value amounted to 100 ± 13 mmHg, the “Final dP/dtmax” value amounted to 678 ± 223 mmHg/s and the “Final dP/dtmin” value is −723 ± 84 mmHg/s. In the data set with isolated rat hearts (10 μM), the “Initial Coronary Flow” value was found to be 20 ± 2 mL/min, the “Initial Heart Rate” value came to 285 ± 10 BPM, the “Initial LVDP” value amounted to 86 ± 5 mmHg and the “Initial LVEDP” value worked out at 7 ± 2 mmHg. Moreover, in the data set with isolated rat hearts (10 μM), the “Initial LVESP” value came to 93 ± 3 mmHg, the “Initial dP/dtmax” value is listed as 2408 ± 126 mmHg/s and the “Initial dP/dtmin” value was −1735 ± 149 mmHg/s. In addition, the “Infarct Size” value in the data set on isolated rat hearts (setting [2]) is given as 18 ± 2%.

For the compound “Myr-SLNPEWNET (Myristoyl-SLNPEWNET) [Myr+PKCβII−]”, the “reduction of PMA (100 nM) induced leukocyte superoxide release” value in data set [1] (20 μM) is recorded as 30%. This compound gave an Infarct Size with isolated rat hearts (setting [3]) of 13±2%.

As for “Myr-YGRKKRRQRRRCCSLNPEWNET (Myristoyl-YGRKKRRQRRRCCSLNPEWNET; cysteine pairing not given here) [Myr+TAT+PKCβII−]”, in data set [1] (20 μM), the “effect on PMA induced leukocyte superoxide release (in words)” value (from here on “effect”) is “virtually identical to the SOD standard”, the “reduction of leukocyte superoxide release as compared to Myr+PKCβII− (20 μM)” value is reported as approximately 65% and the “reduction of PMA (100 nM) induced leukocyte superoxide release” value was determined as 80%. In addition, the Infarct Size in the data set on isolated rat hearts (setting [3]) is 5%.

Regarding “Myr-LSETKPAV (Myristoyl-LSETKPAV) [Myr + PKCε- Scram.]”, in the data set on isolated rat hearts (10 μM), the “Final Coronary Flow” value amounted to 8 ± 2 mL/min, the “Final Heart Rate” value is given as 236 ± 11 BPM, the “Final LVDP” value stood at 51 ± 9 mmHg and the “Final LVEDP” value turned out to be 56 ± 8 mmHg. In addition, in the data set with isolated rat hearts (10 μM), the “Final LVESP” value turned out to be 107 ± 4 mmHg, the “Final dP/dtmax” value was found to be 958 ± 265 mmHg/s, the “Final dP/dtmin” value is −727 ± 133 mmHg/s and the “Initial Coronary Flow” value turned out to be 19 ± 3 mL/min. Moreover, in the data set on isolated rat hearts (10 μM), the “Initial Heart Rate” value came to 278 ± 10 BPM, the “Initial LVDP” value was 87 ± 4 mmHg, the “Initial LVEDP” value is 9 ± 2 mmHg and the “Initial LVESP” value amounted to 96 ± 6 mmHg. Further, in the data set on isolated rat hearts (10 μM), the “Initial dP/dtmax” value is 2307 ± 55 mmHg/s and the “Initial dP/dtmin” value is −1571 ± 72 mmHg/s. In addition, the “Infarct Size” value in the data set with isolated rat hearts (setting [2]) is 14 ± 3%.

On to “Myr-WNPESLNTE (Myristoyl-WNPESLNTE) [Myr−PKCβII− scrambled]”, for which the “effect” value in data set [1] (20 μM) was “increased”. In addition, the Infarct Size in the data set with isolated rat hearts (setting [3]) came out at 22±2%.

Regarding “Myr-YGRKKRRQRRRCCLSETKPAV (Myristoyl-YGRKKRRQRRRCCLSETKPAV; cysteine pairing not given here) [Myr + TAT + PKCε- Scram.]”, in the data set with isolated rat hearts (1 nM), the “Final Coronary Flow” value is 7 ± 2 mL/min, the “Final Heart Rate” value came out at 225 ± 1 BPM, the “Final LVDP” value worked out at 50 ± 11 mmHg and the “Final LVEDP” value is recorded as 53 ± 4 mmHg. Also, in the data set with isolated rat hearts (1 nM), the “Final LVESP” value is listed as 103 ± 14 mmHg, the “Final dP/dtmax” value is 993 ± 195 mmHg/s, the “Final dP/dtmin” value is on record as −760 ± 210 mmHg/s and the “Initial Coronary Flow” value is reported as 15 ± 1 mL/min. Also, in the data set on isolated rat hearts (1 nM), the “Initial Heart Rate” value amounted to 278 ± 10 BPM, the “Initial LVDP” value came out at 87 ± 1 mmHg, the “Initial LVEDP” value came to 6 ± 0.4 mmHg and the “Initial LVESP” value was 92 ± 1 mmHg. Moreover, in the data set on isolated rat hearts (1 nM), the “Initial dP/dtmax” value came out at 2267 ± 87 mmHg/s and the “Initial dP/dtmin” value is recorded as −1490 ± 82 mmHg/s. Also, the “Infarct Size” value in the data set on isolated rat hearts (1 nM, I(30 min)/R(50 min), infarct tissue weight/total tissue weight) is listed as 19 ± 2%. Besides, in the data set on isolated rat hearts (100 nM), the “Final Coronary Flow” value is listed as 12 ± 4 mL/min, the “Final Heart Rate” value is given as 295 ± 29 BPM, the “Final LVDP” value is reported as 36 ± 12 mmHg and the “Final LVEDP” value is reported as 57 ± 10 mmHg. Besides, in the data set with isolated rat hearts (100 nM), the “Final LVESP” value was 93 ± 9 mmHg, the “Final dP/dtmax” value came out at 706 ± 223 mmHg/s, the “Final dP/dtmin” value is −677 ± 222 mmHg/s and the “Initial Coronary Flow” value is reported as 21 ± 6 mL/min. In addition, in the data set on isolated rat hearts (100 nM), the “Initial Heart Rate” value worked out at 271 ± 16 BPM, the “Initial LVDP” value is recorded as 91 ± 5 mmHg, the “Initial LVEDP” value amounted to 9 ± 2 mmHg and the “Initial LVESP” value worked out at 100 ± 4 mmHg. In the data set with isolated rat hearts (100 nM), the “Initial dP/dtmax” value is given as 2300 ± 189 mmHg/s and the “Initial dP/dtmin” value is listed as −1545 ± 117 mmHg/s. Moreover, the “Infarct Size” value in the data set on isolated rat hearts (100 nM, I(30 min)/R(50 min), infarct tissue weight/total tissue weight) is 14 ± 3%. Moreover, in the data set on isolated rat hearts (10 μM), the “Final Coronary Flow” value is 3 ± 0.1 mL/min, the “Final Heart Rate” value amounted to 684 ± 167 BPM, the “Final LVDP” value is 3 ± 2 mmHg and the “Final LVEDP” value amounted to 70 ± 10 mmHg. Moreover, in the data set with isolated rat hearts (10 μM), the “Final LVESP” value was 72 ± 8 mmHg, the “Final dP/dtmax” value was 27 ± 9 mmHg/s, the “Final dP/dtmin” value is on record as −24 ± 8 mmHg/s and the “Initial Coronary Flow” value was 18 ± 1 mL/min. Further, in the data set with isolated rat hearts (10 μM), the “Initial Heart Rate” value is on record as 275 ± 12 BPM, the “Initial LVDP” value is given as 86 ± 1 mmHg, the “Initial LVEDP” value is given as 6 ± 1 mmHg and the “Initial LVESP” value is reported as 92 ± 0.3 mmHg. Also, in the data set on isolated rat hearts (10 μM), the “Initial dP/dtmax” value is given as 2309 ± 69 mmHg/s and the “Initial dP/dtmin” value is listed as −1604 ± 71 mmHg/s. Also, the “Infarct Size” value in the data set on isolated rat hearts (setting [2]) was 16 ± 6%.

Consider “Superoxide dismutase [SOD, reference compound]”, for which, in data set [1] (10 ug/ml, positive control), the “attenuation of leukocyte superoxide release” value is on record as approximately 94%.

Regarding “SLNPEWNET (Atificially synthesized) [PKCβII−]”, the “effect” value in data set [1] (20 μM) is given as “did not exert a significant inhibition”.
